Test results reported in patent US7109364B2, “Group of anti-cancer compounds with specific structure and their production method” (priority 2000, dated 2006).
In brackets after ≈: the same amount, converted by molar mass. Where two headings read alike, the source gives them in different places.

Legend:
[1] = system: K562 human leukemia cell line; test: In vitro anti-cancer efficacy, K562, trypan blue dye exclusion, 48 hours; assay type: cell-based; details: for IC50 / IC90: Homo sapiens, K562; for IC50: read-out: K562 IC50; for IC90: read-out: K562 IC90
Protocol: (§1) The above compounds were dissolved in DMSO at stock concentration of 10 mg/ml and stored at 4° C. Before each experiment they were diluted to desired concentration with serum-free RPMI 1640 medium
1. K562 human leukemia cell line: K562 cells were maintained in RPMI 1640 medium with 5% fetal bovine serum at 37° C. under 5% CO2 atmosphere. 4×10^4 cells/well were plated on 96-well plate. After treatment with the test compounds and solvent control (DMSO) for 48 hours, numbers of live cells were counted by trypan blue dye exclusion.
(§2) Reagents and Methods: same as in Experiment 1.

[2] = system: B16 mouse melanoma cell line; test: In vitro anti-cancer efficacy, B16, SRB method, 48 hours; assay type: cell-based; details: for IC50 / IC90: Mus musculus; for IC50: read-out: B16 IC50; for IC90: read-out: B16 IC90
Protocol: as §1
2. B16 mouse melanoma cell line: B16 cells were maintained under the same condition as above. 2×10^4 cells/well were plated on 48-well plate and left for 12 hours for attachment. Cells were then treated with the test compounds and solvent control for 48 hours. Numbers of live cells were determined by SRB method. Briefly, cells were fixed with 50 μl/well 15% TCA for 1 hour, and then washed three times with double-distilled water. After drying 50 μl/well 1% SRB dye was added and reacted for 10 minutes. Plate was washed with 1% acetic acid. 0.2 ml Tris buffer (pH 9.6) was added and OD510 was recorded.
as §2

[3] = Table 2, unit inferred, methods same as in Experiment 1

With `CCN(CC)C(=O)CCCCCCCCCCCC(C)C` [Compound 13, N,N-Diethyl-13-methyl-tetradecanamide] the IC50 ([1]; Table 1, 48 hours) was 9.1 µg/mL (≈ 30.6 µM), the IC90 ([1]; Table 1, 48 hours) was 42.4 µg/mL (≈ 143 µM) and the IC50 ([2]; Table 1, 48 hours) was 19.3 µg/mL (≈ 64.9 µM). It also gave an IC90 ([2]; Table 1, 48 hours) of 31.9 µg/mL (≈ 107 µM).

With `CC(C)CCCCCCCCCCCC(=O)N1CCCCC1` [Compound 14, N-(13-Methyltetradecanoyl)piperidine] the IC50 ([1]; Table 1, 48 hours) was 18.4 µg/mL (≈ 59.4 µM), the IC90 ([1]; Table 1, 48 hours) was 38.5 µg/mL (≈ 124 µM) and the IC50 ([2]; Table 1, 48 hours) was 17.2 µg/mL (≈ 55.6 µM). It also gave an IC90 ([2]; Table 1, 48 hours) of 33.7 µg/mL (≈ 109 µM).

For `CC(C)CCCCCCCCCCCC(=O)N1CCCC1` [Compound 15, N-(13-Methyl-tetradecanoyl)pyrrolidine], the IC50 ([1]; Table 1, 48 hours) was 16.2 µg/mL (≈ 54.8 µM), the IC90 ([1]; Table 1, 48 hours) was 25 µg/mL (≈ 84.6 µM) and the IC50 ([2]; Table 1, 48 hours) was 13.1 µg/mL (≈ 44.3 µM). The IC90 ([2]; Table 1, 48 hours) was 17.3 µg/mL (≈ 58.5 µM).

Molecule `CC(C)CCCCCCCCCCCC(=O)N1CCOCC1` [Compound 16, N-(13-Methyl-tetradecanoyl)morpholine] has an IC50 ([1]; Table 1, 48 hours) of 15.9 µg/mL (≈ 51 µM), an IC90 ([1]; Table 1, 48 hours) of 20.4 µg/mL (≈ 65.5 µM) and an IC50 ([2]; Table 1, 48 hours) of 11.9 µg/mL (≈ 38.2 µM). For the same molecule, the IC90 ([2]; Table 1, 48 hours) was 19.2 µg/mL (≈ 61.6 µM).

`CC(C)CCCCCCCCCCC(=O)c1ccc(O)cc1O` [Compound 18, (2,4,-dihydroxy phenyl)-12-methyl tridecanone] was tested, and the “K562 IC50” value ([1]; Table 1, 48 hours) was 6.42 µg/mL, the “K562 IC90” value ([1]; Table 1, 48 hours) was 8.90 µg/mL and the “B16 IC50” value ([2]; Table 1, 48 hours) was 5.91 µg/mL. For the same molecule, the “B16 IC90” value ([2]; Table 1, 48 hours) was 8.12 µg/mL.

In the case of `CC(C)CCCCCCCCCCCCc1ccc(O)cc1O` [Compound 21, (13-Methyl tetradecyl)-2,4-dihydroxy phene], the “K562 IC50” value ([1]; Table 1, 48 hours) is reported as 3.62 µg/mL, the “K562 IC90” value ([1]; Table 1, 48 hours) is reported as 5.25 µg/mL and the “B16 IC50” value ([2]; Table 1, 48 hours) is reported as 3.22 µg/mL. The “B16 IC90” value ([2]; Table 1, 48 hours) was 5.14 µg/mL.

`CC(C)(C)CCCCCCCCCCCCc1ccc(O)cc1O` [Compound 22, (13,13-Dimethyl tetradecyl)-2,4-dihydroxy phene] was tested, and the “K562 IC50” value ([1]; Table 1, 48 hours) was 3.92 µg/mL, the “K562 IC90” value ([1]; Table 1, 48 hours) was 5.36 µg/mL and the “B16 IC50” value ([2]; Table 1, 48 hours) was 3.63 µg/mL. The “B16 IC90” value ([2]; Table 1, 48 hours) was 5.42 µg/mL.

With `CCC(C)CCCCCCCCCCCc1ccc(O)cc1O` (stereo not drawn) [Compound 23, (12-Methyl tetradecyl)-2,4-dihydroxy phene] the “K562 IC50” value ([1]; Table 1, 48 hours) was 9.51 µg/mL, the “K562 IC90” value ([1]; Table 1, 48 hours) was 14.6 µg/mL and the “B16 IC50” value ([2]; Table 1, 48 hours) was 8.81 µg/mL. For the same molecule, the “B16 IC90” value ([2]; Table 1, 48 hours) was 13.8 µg/mL.

In the case of `CC(C)CCCCCCCCCCCCc1ccc(O)c(O)c1O` [Compound 24, (13-Methyl tetradecyl)-2,3,4-trihydroxy phene], the “K562 IC50” value ([1]; Table 1, 48 hours) is reported as 13.6 µg/mL, the “K562 IC90” value ([1]; Table 1, 48 hours) is reported as 19.2 µg/mL and the “B16 IC50” value ([2]; Table 1, 48 hours) is reported as 12.8 µg/mL. For the same molecule, the “B16 IC90” value ([2]; Table 1, 48 hours) was 19.5 µg/mL.

In the case of `CC(C)CCCCCCCCCCCNc1ccc(S(=O)(=O)O)cc1` [Compound 25, N-(12-Methyltridecyl)-4-amino benzenesulfonic acid], the IC50 ([1]; Table 1, 48 hours) is reported as 15.1 µg/mL (≈ 40.9 µM), the IC90 ([1]; Table 1, 48 hours) is reported as 20 µg/mL (≈ 54.1 µM) and the IC50 ([2]; Table 1, 48 hours) is reported as 13.5 µg/mL (≈ 36.5 µM). The IC90 ([2]; Table 1, 48 hours) was 18.8 µg/mL (≈ 50.9 µM).

In the case of `CC(C)CCCCCCCCCCCNc1ccc(O)c(O)c1` [Compound 26, N-(12-Methyl-tridecyl)-4-amino-1,2-benzenediol], the IC50 ([1]; Table 1, 48 hours) is reported as 6.73 µg/mL (≈ 20.9 µM), the IC90 ([1]; Table 1, 48 hours) is reported as 13.5 µg/mL (≈ 42 µM) and the IC50 ([2]; Table 1, 48 hours) is reported as 5.81 µg/mL (≈ 18.1 µM). It also gave an IC90 ([2]; Table 1, 48 hours) of 12.6 µg/mL (≈ 39.2 µM).

`CC(C)CCCCCCCCCCC(Br)C(=O)O` (stereo not drawn) [Compound 27, 2-Bromo-13-methyl-tetradecanoic acid] gave an IC50 ([1]; Table 1, 48 hours) of 7.21 µg/mL (≈ 22.4 µM), an IC90 ([1]; Table 1, 48 hours) of 10.1 µg/mL (≈ 31.4 µM) and an IC50 ([2]; Table 1, 48 hours) of 6.1 µg/mL (≈ 19 µM). The IC90 ([2]; Table 1, 48 hours) was 11.2 µg/mL (≈ 34.9 µM).

In the case of `CC(C)CCCCCCCCCCC(N)C(=O)O` (stereo not drawn) [Compound 28, 2-Amino-13-methyl-tetradecanoic acid], the IC50 ([1]; Table 1, 48 hours) is reported as 19.7 µg/mL (≈ 76.5 µM), the IC90 ([1]; Table 1, 48 hours) is reported as 28.6 µg/mL (≈ 111 µM) and the IC50 ([2]; Table 1, 48 hours) is reported as 17.4 µg/mL (≈ 67.6 µM). It also gave an IC90 ([2]; Table 1, 48 hours) of 25.3 µg/mL (≈ 98.3 µM).

Molecule `CC(C)CCCCCCCCCCCCNc1ccc(O)c(O)c1` [Compound 32, N-(13-Methyltetradecyl)-4-amino-1,2-benzenediol] has an IC50 ([1]; Table 1, 48 hours) of 6.31 µg/mL (≈ 18.8 µM), an IC90 ([1]; Table 1, 48 hours) of 11.5 µg/mL (≈ 34.3 µM) and an IC50 ([2]; Table 1, 48 hours) of 5.75 µg/mL (≈ 17.1 µM). The IC90 ([2]; Table 1, 48 hours) was 10.6 µg/mL (≈ 31.6 µM).

`CC(C)CCCCCC=CC(=O)O` [Compound 33, 9-Methyl-2-decenoic acid] was tested, and the IC50 ([1]; Table 1, 48 hours) was 51.2 µg/mL (≈ 278 µM), the IC50 [1, 3] was 26.7 µg/mL (≈ 145 µM) and the IC90 [1, 3] was 51.2 µg/mL (≈ 278 µM). The IC50 [2, 3] was 40.5 µg/mL (≈ 220 µM) and the IC90 [2, 3] was 91 µg/mL (≈ 494 µM).

“(2,3,4-Trihydroxy phenyl)-12-methyl tridecanone [Compound 20]” was tested, and the “K562 IC50” value ([1]; Table 1, 48 hours) was 15.3 µg/mL, the “K562 IC90” value ([1]; Table 1, 48 hours) was 20.2 µg/mL and the “B16 IC50” value ([2]; Table 1, 48 hours) was 14.8 µg/mL. The “B16 IC90” value ([2]; Table 1, 48 hours) was 19.32 µg/mL.

“(2,4,6-Trihydroxyphenyl)-12-methyl tridecanone [Compound 19]” was tested, and the “K562 IC50” value ([1]; Table 1, 48 hours) was 5.13 µg/mL, the “K562 IC90” value ([1]; Table 1, 48 hours) was 6.80 µg/mL and the “B16 IC50” value ([2]; Table 1, 48 hours) was 4.93 µg/mL. For the same molecule, the “B16 IC90” value ([2]; Table 1, 48 hours) was 6.11 µg/mL.
